In patent US10376476B2, “Panicein compounds, compositions and uses thereof” (CENTRE NATIONAL DE LA RECHERCHE SCIENTIFIQUE, priority 2014, dated 2019):

How the values were obtained:
control yeasts = assay: Doxorubicin efflux from yeasts (intracellular dxr fluorescence); type: cell-based, Saccharomyces cerevisiae; settings: 10 μM paniceins, 10 min, 5 mM 2-deoxy-D-glucose
Description: A. Compound P5 inhibits doxorubicin efflux from melanoma cells MeWo and A375. Cells were grown on cover-slips, incubated for 2 hour at 37° C. with 10 μM doxorubicin and quickly rinsed with phosphate buffer (pH 7.4). One cover-slip of each cell line was immediately fixed for doxorubicin charge control. The other cover-slips were incubated with buffer supplemented with DMSO or 10 μM of compound P5 30 min under gentle shaking and immediately fixed. Dxr intracellular fluorescence was visualized by epifluorescence and analyzed using Image J software on more than 30 cells of 3 different fields for each condition. The results were analyzed using the Student t test in which significance is attained at P<0.05 (**: P<0.005, ***: P<0.0005). B. Paniceins inhibit doxorubicin efflux from Patched-expressing yeasts. Yeasts expressing wild-type Patched (hPtc, in black), mutant Patched G509VD513Y (hPtcVXXXY, in grey), and control yeasts (in white) were incubated in buffer supplemented with 5 mM of 2-deoxy-D-glucose and 10 μM dxr for 2 hours at 4° C. After centrifugation and supernatant removing, one sample was immediately fixed for charge control and the other samples were resuspended in buffer containing 5 mM of 2-deoxy-D-glucose supplemented with DMSO or 10 μM of paniceins 10 minutes at 25° C. with gentle shaking. After centrifugation and supernatant removing, samples were fixed and deposited on coverslips for epifluorescence microscopy observation. Dxr intracellular fluorescence quantification was carried out using Image J software on more than 30 yeasts on 3 different fields for each condition. The results were analyzed using the Student t test in which significance is attained at P<0.05 (*).
On yeasts: Yeasts expressing Patched (hPtc), mutant Patched (hPtcG509VD513Y), or control yeasts were washed with cold water, resuspended at an OD600 of 10 in Hepes-NaOH buffer (pH 7.0) supplemented with 5 mM of 2-deoxy-D-glucose, and incubated with 10 μM doxorubicin for 2 hours at 4° C. in the cold room on a rotating wheel protected from light. Yeasts were centrifuged and the supernatant was removed. One sample was immediately fixed with 4% paraformaldehyde for doxorubicin loading control. […] Quantification of doxorubicin intracellular fluorescence was carried out using Image J software on more than 30 yeasts on 3 different fields for each condition. The results were analyzed using the Student t test in which significance is attained at P <0.05.
In order to see if Paniceins inhibit dxr efflux through Patched inhibition, inventors compared dxr efflux on yeasts over-expressing human Patched and control yeasts. […] Dxr fluorescence intensity of at least 30 yeasts was measured for each experiment. FIGS. 6A and 12A show the mean fluorescence intensity of 3 independent experiments. […]

MeWo cells = assay: Doxorubicin efflux from melanoma cells (intracellular dxr fluorescence); type: cell-based, human; settings: loaded with 10 μM dxr, 10 μM compound, 30 min efflux
Description: (§1) A. Compound P5 inhibits doxorubicin efflux from melanoma cells MeWo and A375. Cells were grown on cover-slips, incubated for 2 hour at 37° C. with 10 μM doxorubicin and quickly rinsed with phosphate buffer (pH 7.4). One cover-slip of each cell line was immediately fixed for doxorubicin charge control. The other cover-slips were incubated with buffer supplemented with DMSO or 10 μM of compound P5 30 min under gentle shaking and immediately fixed. Dxr intracellular fluorescence was visualized by epifluorescence and analyzed using Image J software on more than 30 cells of 3 different fields for each condition. The results were analyzed using the Student t test in which significance is attained at P<0.05 (**: P<0.005, ***: P<0.0005). […] Dxr intracellular fluorescence quantification was carried out using Image J software on more than 30 yeasts on 3 different fields for each condition. The results were analyzed using the Student t test in which significance is attained at P<0.05 (*).
(§2) On melanoma cells: For doxorubicin incorporation in melanoma cells, the protocol was adapted from Bidet et al. (2012). […] Quantification of doxorubicin intracellular fluorescence was carried out using Image J software on more than 30 cells of 3 different fields for each condition. The results were analyzed using the Student t test in which significance is attained at P<0.05.

A375 cells = assay: as above; type: cell-based, human; settings: A375, loaded with 10 μM dxr, 10 μM compound, 30 min efflux
Description: as §1, §2

melanoma cells = assay: Apoptosis by AnnexinV and DAPI co-staining; type: cell-based, human
Description: Cells were sampled after 24 h treatment with DMSO, paniceins and/or dxr, and apoptosis determined via AnnexinV and DAPI co-staining. Cells in early apoptosis are AnnexinV positive and DAPI negative, and cells in late apoptosis are AnnexinV and DAPI double positive. Histograms represent the mean percentage (+/−SEM) of cells in late apoptosis from three independent experiments and were analyzed using the Student t-test in which significance is attained at P<0.05 (*) (**: P<0.005).

keratinocytes HaCaT = assay: Doxorubicin efflux from cells (intracellular dxr fluorescence); type: cell-based
[1] = test system: Patched protein in MEWO and A375 cells; assay: Western blotting of Patched after panicein treatment; type: cell-based, human; settings: 24 hours, 10 μM
Description: Western-blotting on total extracts from MEWO and A375 cells after 24 h treatment with 10 μM of panicein A hydroquinone (P5) or with DMSO.
Total extracts from melanoma cells were prepared. Samples were separated on 8% SDS-PAGE and transferred to nitrocellulose membranes (Amersham) using standard techniques. After 1 hour at room temperature in blocking buffer (20 mmol/L Tris-HCl pH 7.5, 450 mmol/L NaCl, 0.1% Tween-20, and 4% non-fat milk), nitrocellulose membranes were incubated overnight at 4° C. with rabbit anti-Patched antiserum (Ab130.6 1:1000 generous gift from M. Ruat or Ab39266 from Abcam 1/1000) and monoclonal mouse anti-βtubulin antibody (Sigma; 1/1000). After 3 washes, membranes were incubated 45 min with anti-mouse (1:5000) or anti-rabbit (1:3000) immunoglobulin coupled to horseradish peroxidase (Dako). Detection was carried out with an ECL kit (Millipore) on a Las3000 (Fuji).

A375 melanoma cells = assay: Vemurafenib cytotoxicity, viability test using neutral red; type: cell-based, human; settings: A375, 10 μM panicein A hydroquinone

## C/C(=C\Cc1cc(O)ccc1O)CCc1c(C)c(O)c(O)c(C=O)c1C [P2, Panicein C]
Control yeasts
  Efflux (%) of dxr: 20%

## C/C(=C\Cc1cc(O)ccc1O)CCc1c(C)cc(O)c(C=O)c1C [P3, Panicein B3]
Control yeasts
  Efflux (%) of dxr: 25%

## Cc1cc(O)c(C=O)c(C)c1CCC1(C)C=Cc2cc(O)ccc2O1 (centres unmarked) [P4, Panicein B2]
Control yeasts
  Efflux (%) of dxr: 29%

## COc1cc(C)c(CC/C(C)=C/Cc2cc(O)ccc2O)c(C)c1C [P5, Panicein A hydroquinone]
MeWo cells
  increase of dxr in cells (dxr fluorescence intensity) after efflux: about 25%
A375 cells
  increase of dxr in cells (dxr fluorescence intensity) after efflux: about 25%
Melanoma cells; 24 h treatment with paniceins and/or dxr
  early apoptosis (Annexin V and DAPI labeling): increases early apoptosis
Melanoma cells; 24 h treatment, AnnexinV and DAPI co-staining
  number of apoptotic melanoma cells: strongly increases
Keratinocytes HaCaT
  increase of dxr in cells (dxr fluorescence intensity) after efflux: contrary to “healthy” keratinocytes HaCaT
[1]
  effect on Patched expression or degradation: no effect
A375 melanoma cells
  increase of vemurafenib cytotoxicity: strongly increases
Control yeasts
  Efflux (%) of dxr: 39%
